According to patent publication US7704979B2, “Materials and methods for the treatment or prevention of obesity” (The University of Tennessee Research Foundation, priority 2000, dated 2010):
pEC50: −log10 of the molar value.

How the values were obtained:
human adipocytes [1] = assay: FAS mRNA expression in human adipocytes, Northern blot (Example 4); type: cell-based
Procedure: A human adipocyte cell line and primary-cultured human adipocytes were both used as cell models in this study. The human adipocyte cell line was differentiated from human preadipocytes obtained from Zen-Bio Inc. (Research Triangle Park, N.C.). Human preadipocytes were inoculated in Dulbecco's Modified Eagle' Medium (DMEM)/Ham' F-10 medium (F-10) (1:1, v/v) containing 10% fetal bovine serum (FBS), 15mM Hepes and antibiotics at a density of 30,000 cells/cm^2. Confluent monolayers of preadipocytes were induced to differentiate with a standard differentiation medium consisting of DMEM/F-10 (1:1, v/v) medium supplemented with 15 mM Hepes, 3% FBS, 33 μM biotin, 17 μM pantothenate, 100 nM insulin, 0.25 mM methylisobutylxanthine (MIX), 1 μM dexamethasome, 1 μM BRL49653 and antibiotics. Preadipocytes were maintained in this differentiation medium for 3 days and subsequently cultured in adipocyte medium in which BRL49653 and MIX were withdrawn. Cultures were re-fed every 2-3 days (Shi, H., et al., “Role of intracellular calcium in human adipocyte differentiation,” Phyisol. Genomics. (2000) pp. 75-82, vol. 3.). Primary-cultured human adipocytes were derived from human subcutaneous adipose tissue obtained from patients undergoing abdominal plastic surgery with no known history of metabolic disorders. This protocol was approved by the Institutional Review Board for Human Subjects and the Committee for Research Participation of the University of Tennessee. Adipocytes were isolated according to the teachings of (Shi, H., et al., “Role of the sulfonylurea receptor in regulating human adipocyte metabolism,” FASEB. J. (1999) pp. 1833-38, vol. 13.). Briefly, adipose tissue was first washed several times with Hank's Balanced Salt Solution, minced into small pieces and digested with 1 mg/ml type1 collagenase in a shaking water bath at 37° C. for 30 min. […] ZERO-Dscan software (Scanalytics, Inc, Fairfax, Va.) was used to quantitatively analyze these images.

human adipocytes [2] = assay: Human adipocyte [Ca2+]i, fura-2 imaging (Example 4); type: cell-based
human adipocytes [3] = assay: FAS activity in human adipocytes (Example 4); type: cell-based
Procedure: A human adipocyte cell line and primary-cultured human adipocytes were both used as cell models in this study. The human adipocyte cell line was differentiated from human preadipocytes obtained from Zen-Bio Inc. (Research Triangle Park, N.C.). Human preadipocytes were inoculated in Dulbecco's Modified Eagle' Medium (DMEM)/Ham' F-10 medium (F-10) (1:1, v/v) containing 10% fetal bovine serum (FBS), 15mM Hepes and antibiotics at a density of 30,000 cells/cm^2. Confluent monolayers of preadipocytes were induced to differentiate with a standard differentiation medium consisting of DMEM/F-10 (1:1, v/v) medium supplemented with 15 mM Hepes, 3% FBS, 33 μM biotin, 17 μM pantothenate, 100 nM insulin, 0.25 mM methylisobutylxanthine (MIX), 1 μM dexamethasome, 1 μM BRL49653 and antibiotics. Preadipocytes were maintained in this differentiation medium for 3 days and subsequently cultured in adipocyte medium in which BRL49653 and MIX were withdrawn. Cultures were re-fed every 2-3 days (Shi, H., et al., “Role of intracellular calcium in human adipocyte differentiation,” Phyisol. Genomics. (2000) pp. 75-82, vol. 3.). Primary-cultured human adipocytes were derived from human subcutaneous adipose tissue obtained from patients undergoing abdominal plastic surgery with no known history of metabolic disorders. This protocol was approved by the Institutional Review Board for Human Subjects and the Committee for Research Participation of the University of Tennessee. Adipocytes were isolated according to the teachings of (Shi, H., et al., “Role of the sulfonylurea receptor in regulating human adipocyte metabolism,” FASEB. J. (1999) pp. 1833-38, vol. 13.). […] FAS and GPDH activity was determined spectrophotometrically in crude cytosolic extracts of human adipocytes as previously described (Shi, H., et al., “Role of the sulfonylurea receptor in regulating human adipocyte metabolism,” FASEB. J. (1999) pp. 1833-38, vol. 13). […]

human adipocytes [4] = assay: GPDH activity in human adipocytes (Example 4); type: cell-based
Procedure: A human adipocyte cell line and primary-cultured human adipocytes were both used as cell models in this study. The human adipocyte cell line was differentiated from human preadipocytes obtained from Zen-Bio Inc. (Research Triangle Park, N.C.). Human preadipocytes were inoculated in Dulbecco's Modified Eagle' Medium (DMEM)/Ham' F-10 medium (F-10) (1:1, v/v) containing 10% fetal bovine serum (FBS), 15mM Hepes and antibiotics at a density of 30,000 cells/cm^2. Confluent monolayers of preadipocytes were induced to differentiate with a standard differentiation medium consisting of DMEM/F-10 (1:1, v/v) medium supplemented with 15 mM Hepes, 3% FBS, 33 μM biotin, 17 μM pantothenate, 100 nM insulin, 0.25 mM methylisobutylxanthine (MIX), 1 μM dexamethasome, 1 μM BRL49653 and antibiotics. Preadipocytes were maintained in this differentiation medium for 3 days and subsequently cultured in adipocyte medium in which BRL49653 and MIX were withdrawn. Cultures were re-fed every 2-3 days (Shi, H., et al., “Role of intracellular calcium in human adipocyte differentiation,” Phyisol. Genomics. (2000) pp. 75-82, vol. 3.). Primary-cultured human adipocytes were derived from human subcutaneous adipose tissue obtained from patients undergoing abdominal plastic surgery with no known history of metabolic disorders. This protocol was approved by the Institutional Review Board for Human Subjects and the Committee for Research Participation of the University of Tennessee. Adipocytes were isolated according to the teachings of (Shi, H., et al., “Role of the sulfonylurea receptor in regulating human adipocyte metabolism,” FASEB. J. (1999) pp. 1833-38, vol. 13.). Briefly, adipose tissue was first washed several times with Hank's Balanced Salt Solution, minced into small pieces and digested with 1 mg/ml type1 collagenase in a shaking water bath at 37° C. for 30 min. Adipocytes were then filtered through a sterile 500 μm nylon mesh and cultured in Dulbecco's Modified Eagle's Medium (DMEM) supplemented with 1% fetal bovine serum (FBS), 100 UI/ml penicillin, 100 μg/ml streptomycin and 50 μg/ml gentamicin. Cells were cultured in suspension and maintained in a thin layer at the top of culture media, which were changed every day. Cells were maintained viable and metabolically responsive under this culture condition for 7 days. FAS and GPDH activity was determined spectrophotometrically in crude cytosolic extracts of human adipocytes as previously described (Shi, H., et al., “Role of the sulfonylurea receptor in regulating human adipocyte metabolism,” FASEB. J. (1999) pp. 1833-38, vol. 13). Human adipocytes were homogenized in 250 mmol/L sucrose solution containing 1 mmol/L ethylenediamine-tetraacticacid (EDTA), 1 mmol/L dithiothreitol (DTT), and 100 μmol/L phenylmethylsulfonyl fluoride (PMSF) (pH 7.4). […]

human adipocytes [5] = assay: Isoproterenol-stimulated lipolysis in human adipocytes (Example 4); type: cell-based
Procedure: (§1) A human adipocyte cell line and primary-cultured human adipocytes were both used as cell models in this study. The human adipocyte cell line was differentiated from human preadipocytes obtained from Zen-Bio Inc. (Research Triangle Park, N.C.). Human preadipocytes were inoculated in Dulbecco's Modified Eagle' Medium (DMEM)/Ham' F-10 medium (F-10) (1:1, v/v) containing 10% fetal bovine serum (FBS), 15mM Hepes and antibiotics at a density of 30,000 cells/cm^2. Confluent monolayers of preadipocytes were induced to differentiate with a standard differentiation medium consisting of DMEM/F-10 (1:1, v/v) medium supplemented with 15 mM Hepes, 3% FBS, 33 μM biotin, 17 μM pantothenate, 100 nM insulin, 0.25 mM methylisobutylxanthine (MIX), 1 μM dexamethasome, 1 μM BRL49653 and antibiotics. Preadipocytes were maintained in this differentiation medium for 3 days and subsequently cultured in adipocyte medium in which BRL49653 and MIX were withdrawn. Cultures were re-fed every 2-3 days (Shi, H., et al., “Role of intracellular calcium in human adipocyte differentiation,” Phyisol. Genomics. (2000) pp. 75-82, vol. 3.). Primary-cultured human adipocytes were derived from human subcutaneous adipose tissue obtained from patients undergoing abdominal plastic surgery with no known history of metabolic disorders. […]

nVDR = conditions: cited from earlier work
human adipocytes [6] = assay: Basal lipolysis (glycerol release) in human adipocytes (Example 4); type: cell-based
Procedure: as §1

human adipocytes [7] = assay: Forskolin-stimulated lipolysis (glycerol release) in human adipocytes; type: cell-based; conditions: data not shown
human adipocytes [8] = assay: Intracellular Ca2+ in primary cultures of human adipocytes (fura-2 fluorometry); type: cell-based; conditions: read-out: EC50 for increase in intracellular Ca2+
Procedure: Human subcutaneous adipose tissue was obtained from patients with no known history of metabolic disorders undergoing abdominal plastic surgery. Adipocytes were isolated by washing, mincing, collagenase digestion, and filtration as described previously and cultured in Dulbecco's modified Eagle's medium supplemented with 1% fetal bovine serum, penicillin (100 IU/ml), streptomycin (100 μg/ml), and gentamicin (50 μg/ml). Cells were cultured in suspension and maintained in a thin layer at the top of the culture media, which was changed every day. Cells were studied about 72 hours after isolation and were serum-starved prior to study.
Intracellular Ca^2+ was determined fluorometrically as described previously. Cells were washed with HEPES-buffered salt solution loaded with fura-2-acetoxymethyl ester (10 μM) for 45 minutes at 37° C. in the dark with continuous shaking. Cells were then rinsed three times, resuspended, and intracellular Ca^2+ was measured using dual excitation (340 and 380 nm)/single emission (510 nm) fluorometry. After the establishment of a stable baseline, the response to 1,25-(OH)2-D or parathyroid hormone (10 pM-100 nM) or their respective vehicles was determined. Digitonin (25 μM) and Tris/EGTA (100 mM, pH 8.7) were used to for calibration to calculate the final intracellular Ca^2+.

Molecule: C=C1/C(=C\C=C2/CCC[C@]3(C)[C@@H]([C@H](C)CCCC(C)(C)O)CC[C@@H]23)C[C@@H](O)C[C@@H]1O [1α,25-(OH)2-D3, 1α,25-Dihydroxyvitamin D3]
- increase in FAS mRNA expression (human adipocytes [1]): 2 fold
- [Ca2+]i response in human adipocytes (human adipocytes [2]): significant increase of [Ca^2+]i in human adipocyte in a dose-dependent manner
- increase in adipocyte FAS activity (human adipocytes [3]; 5 nM, over 48 hrs): 40%
- increase in human adipocyte GPDH activity (human adipocytes [4]; 5 nM): 50%

Molecule: C[C@H](CCCC(C)(C)O)[C@H]1CC[C@H]2C3=CC=C4C[C@@H](O)C[C@H](O)[C@@]4(C)[C@@H]3CC[C@]12C [1α,25-(OH)2-lumisterol3, 1α,25-dihydroxylumisterol3]
- increase in FAS mRNA expression (human adipocytes [1]): 2.5 fold
- [Ca2+]i response in human adipocytes (human adipocytes [2]): marked dose-responsive increases
- increase in FAS activity (human adipocytes [3]; human adipocytes): 2.5 fold
- stimulation of GPDH activity (human adipocytes [4]; human adipocytes): 2.8 fold
- inhibition of isoproterenol-stimulated lipolysis (human adipocytes [5]): 53%
- binding affinity to nVDR (nVDR): low binding affinity
- inhibition of adipocyte basal lipolysis (human adipocytes [6]): 50%

Molecule: C=C1/C(=C\C=C2/CCC[C@]3(C)[C@@H]([C@H](C)CCCC(C)(C)O)CC[C@@H]23)C[C@@H](O)C[C@H]1O [1β,25-(OH)2-D3, 1β,25-dihydroxyvitamin D3]
- effect on stimulation of FAS mRNA expression (human adipocytes [1]): completely blocked
- effect of pre-treatment on 1α,25-(OH)2-lumisterol3-induced increases in [Ca2+]i (human adipocytes [2]; pre-treatment of human adipocytes): completely prevented
- effect of pretreatment on stimulation of FAS activity (human adipocytes [3]; pretreatment of human adipocytes): completely prevented
- effect on 1α,25-(OH)2-D3 stimulated GPDH activity (human adipocytes [4]; human adipocytes): little effect
- effect on 1α,25-(OH)2-lumisterol3 stimulated GPDH activity (human adipocytes [4]; human adipocytes): markedly inhibited
- effects on nVDR (nVDR): no effects

Molecule: CC(C)NCC(O)c1ccc(O)c(O)c1 (centres unmarked) [isoproterenol]
- increase in lipolysis (human adipocytes [5]): 3.2 fold

Molecule: parathyroid hormone [PTH]
- effect on lipolysis (human adipocytes [7]): little effect
- pEC50 (human adipocytes [8]): ~8.00
